# Read-outs that look alike come from different tables or passages of the source.
# How the values were obtained:
# [1] = tested on: Febr1T (DNA, G4) GGGCAGGGGGTGATGGGGAGGAGCCAGGG; assay: FRET melting; conditions: 10 mM K+, 90 mM Li+; 10 mM Li cacodylate; 5 µM ligand, 200 nM DNA
# MRC5 non-tumoral cells = assay: Cytotoxicity, alamarBlue assay, MRC5; format: cell-based, human; conditions: 72 h incubation, alamarBlue fluorescence, read-out: absolute EC50 MRC5
# Protocol: Doxorubicin, suramin and miltefosine were used as control compounds.[ ^6b , ^9 ] After incubation with varied concentrations of the compounds for 72 h, cell viability was measured using either an alamarBlue™ assay (for MRC5, HeLa and T. brucei) or MTT assay (for L. major). Absolute EC50 values and selectivity indexes were then calculated from dose‐response curves (Table 2 and S14). […]
# Cell culture reagents were purchased from Thermo Fisher Scientific (Waltham, MA, USA) and used as-is. The Dulbecco’s Minimal Essential Medium (DMEM) formulation contained either high glucose (4.5 g/L, catalogue number: 10569) or low glucose (1 g/L, catalogue number:
# 10567). RPMI-1640 was provided without sodium pyruvate and with L-glutamine (catalogue number: 11875). Phosphate Buffered Saline (PBS) contained NaCl (9 g/L), KH2PO4 (144 mg/L) and Na2HPO4-7.H2O (795 mg/L, catalogue number: 10010049). TrypLE Express™ was provided with EDTA (458 mg/L) and without Phenol Red (catalogue number: 12604021).
# MRC-5 cells (human lung fibroblasts) were grown in monolayer (37 °C, 5 % CO2 and 100 % humidity) in DMEM medium (1 g/L glucose), supplemented with 10% heat-inactivated Fetal Bovine Serum (hiFBS), 2 mM L-glutamine, 100 U / mL penicillin and […]
# streptomycin. […]
# Cells were cultured according to ATCC recommendations and were used for the experiments while in the exponential growth phase. […]
# Cytotoxicity was measured through the alamarBlue® assay (Thermo Fisher Scientific).[S6,S13] Briefly, 5×10^3 MRC-5 or HeLa cells were seeded in 96-wells plates (100 µL / well) in the presence of increasing concentrations of compound. After 72 hrs of incubation at 37 °C, 20 µL of alamarBlue® solution (110 ng / ml) was added to each well and cells were reincubated for 4 hrs at 37 °C. Then, 50 µL of 3 % SDS were added to each well. The plate was incubated at 37 °C for an extra hour and then analysed by fluorescence with an Infinite F200 plate reader (TECAN Austria, GmbH). The excitation wavelength was fixed at 550 nm and the emission wavelength at 590 nm. The results are expressed as the concentration of compound that reduces
# [2] = tested on: Febr1T-K+ (T. brucei G-quadruplex); assay: FRET melting assay, T. brucei G4; format: binding; conditions: 200 nM DNA, PIPER and 3 not reliable (spectral overlap)
# Protocol: (§1) With the library in hand, we began our investigation into G4 stabilization by conducting a Förster resonance energy transfer (FRET) melting assay to assess DNA stabilization using the procedure outlined by De Cian et. al. ^[13] […] The sequences examined (at 200 nM) were the human telomeric G4 in potassium buffer (F21T‐K^+, mixed parallel/hybrid G4) ^[14] and sodium buffer (F21T‐Na^+, antiparallel G4), ^[15] the c‐Myc promoter G‐quadruplex (FmycT‐K^+, parallel G4), ^[16] a polymorphic G4 found in T. brucei (FEBR1T‐K^+, a mixed G4 topology), ^[6b] and a hairpin duplex DNA sequence (F10T‐K^+). Together, these sequences represent targets for therapeutic intervention to treat parasitic infections, ^[6b] or cancer. ^[1b] The topology of each sequence was confirmed independently via circular dichroism (CD, Figure S1). […]
# (§2) FRET melting assays were performed to assess ligand affinity for duplex and G-quadruplex
# (§3) DNA. Briefly, oligonucleotides of interest were obtained labelled at the 5’ and 3’ ends with FAM (a fluorescence donor) and TAMRA (a fluorescence quencher), respectively. In the folded state, proximity of the donor and quencher result in no observed fluorescence from FAM, since energy is transferred non-radiatively to TAMRA by FRET. As the temperature is raised and the secondary structure denatures, the fluorophores move further apart and the fluorescence signal increases. From the resulting curve, the characteristic melting temperature (Tmax, also referred to as Tm) is defined as the temperature which corresponds to the maxima of the first derivative of the normalised fluorescence signal. The change in melting temperature (ΔTm) induced by the presence of a small molecule ligand provides an indication of the ligand’s ability to stabilise the DNA structure. FRET experiments were performed according to the […]
# (§4) procedure reported by De Cian and co-workers[S3] on a Stratagene MX3005P. The method consisted of holding at 25 °C for 5 min, before heating at 1 °C/min to 96 °C in 1 °C increments, […]
# [3] = tested on: F21T-K+ (human telomeric G-quadruplex, mixed parallel/hybrid); assay: FRET melting assay, human telomeric G4 in potassium buffer; format: binding; conditions: 200 nM DNA, PIPER and 3 not reliable (spectral overlap)
# Protocol: as §1, §2, §3, §4
# [4] = tested on: FmycT-K+ (c-Myc promoter G-quadruplex, parallel); assay: FRET melting assay, c-Myc promoter G4; format: binding; conditions: 200 nM DNA, PIPER and 3 not reliable (spectral overlap)
# Protocol: as §1, §2, §3, §4
# [5] = 5 μM ligand, 10 mM KCl, 90 mM LiCl, 10 mM Li cacodylate
# [6] = 5 μM ligand, 1 mM KCl, 99 mM LiCl, 10 mM Li cacodylate
SMILES,ΔTm [1] [°C],"EC50 (MRC5 non-tumoral cells; Homo sapiens, MRC5, 72 h) [µM]",ΔTm Febr1T-K+ ([2]; 1 µM ligand) [°C],"ΔTm Febr1T-K+ [2, 5] [°C]",ΔTm Febr1T-K+ ([2]; 10 µM ligand) [°C],ΔTm F21T-K+ ([3]; 1 µM ligand) [°C],"ΔTm F21T-K+ [3, 5] [°C]",ΔTm F21T-K+ ([3]; 10 µM ligand) [°C],EC50 (MRC5 non-tumoral cells) [µM],ΔTm FmycT-K+ ([4]; 1 µM ligand) [°C],"ΔTm FmycT-K+ [4, 6] [°C]",ΔTm FmycT-K+ ([4]; 10 µM ligand) [°C]
CN1CCN(CCCN2C(=O)c3ccc4c5c(ccc(c35)C2=O)C(=O)N(CCCN2CCN(C)CC2)C4=O)CC1 [Compound 1],9±1,3.9 ± 0.5,7 ± 3,9±1,11 ± 3,–,–,–,–,–,–,–
CN1CCN(CCCN2C(=O)c3ccc4c5ccc6c7c(ccc(c8ccc(c3c48)C2=O)c75)C(=O)N(CCCN2CCN(C)CC2)C6=O)CC1 [Compound 3],–,2,2 ± 1,33±1,39 ± 1,10 ± 1,34±1,33 ± 1,2.1 ± 0.6,24 ± 1,37±2,> 40
CN1CCN(CCCN2C(=O)c3ccc(Oc4ccc(C(C)(C)c5ccc(Oc6ccc7c(c6)C(=O)N(CCCN6CCN(C)CC6)C7=O)cc5)cc4)cc3C2=O)CC1 [Compound 9],−4±1,88 ± 10,–,−4±1,-3 ± 1,–,−1±1,8 ± 3,–,–,−1±2,10 ± 3
CN1CCN(CCCNC(=O)c2ccc(Oc3ccc(C(C)(C)c4ccc(Oc5ccc(C(=O)NCCCN6CCN(C)CC6)c(C(=O)NCCCN6CCN(C)CC6)c5)cc4)cc3)cc2C(=O)NCCCN2CCN(C)CC2)CC1 [Compound 11],6±1,59 ± 37,1 ± 1,6±1,13 ± 1,-2 ± 1,7±2,9 ± 1,–,-3 ± 1,5±1,10 ± 2

# From paper PMC8251916 (Chemistry (Weinheim an Der Bergstrasse, Germany), 2021)
